Data published in US11149043B2 (Calico Life Sciences LLC, priority 2018, dated 2021).
Converted amounts (≈) assume the structure as drawn. Counter-ions that a name gives are not always drawn.

Assay: Solubility assay (high throughput 96-well plate, pH 7.4 phosphate buffer)
Format: physicochemical
Details: aqueous buffer, thermodynamic from solid, shaken two days at room temperature, UV-UPLC
Description: Solubility measurements were performed using a high throughput 96-well plate based assay. For this, 0.2 mg of sample compound was weighed and added to a sample plate in triplicate and 650 μL of pH 7.4 phosphate buffer was added. The sample plate was capped, allowed to shake on a plate shaker for two days at room temperature, and then centrifuged (2000 rpm, 10 minutes) to settle undissolved solids. Approximately 600 μL of the aqueous supernatant slurry from each sample plate was transferred to a filter plate mounted on top of a receiver plate. Vacuum was applied to collect the filtrate. Appropriate dilutions were made in 50/50 methanol/water and quantification for concentration was performed against known standards by UV-UPLC. Some preferred compounds of the invention have greater solubility than the parent compound (P), N,N′-[(2S)-2-hydroxybicyclo[2.2.2]octane-1,4-diyl]bis[2-(4-chloro-3-fluorophenoxy)acetamide].

| Structure (SMILES) | solubility at 2 days [µM] |
| --- | --- |
| CC(=O)O[C@H]1CC2(NC(=O)COc3ccc(Cl)c(F)c3)CCC1(NC(=O)COc1ccc(Cl)c(F)c1)CC2 (single isomer, unassigned) [Compound 100] | < 0.82 |
| N[C@@H](CC(=O)O[C@H]1CC2(NC(=O)COc3ccc(Cl)c(F)c3)CCC1(NC(=O)COc1ccc(Cl)c(F)c1)CC2)C(=O)O [Compound 102, (2S)-2-amino-4-({(2S)-1,4-bis[2-(4-chloro-3-fluorophenoxy)acetamido]bicyclo[2.2.2]octan-2-yl}oxy)-4-oxobutanoic acid] | 59 (≈ 38 µg/mL) |
| O=C(COc1ccc(Cl)c(F)c1)NC12CCC(NC(=O)COc3ccc(Cl)c(F)c3)(CC1)[C@@H](OC(=O)Cc1ccccc1OP(=O)(O)O)C2 [Compound 115] | 936 (≈ 696 µg/mL) |
| CN(C(=O)O[C@H]1CC2(NC(=O)COc3ccc(Cl)c(F)c3)CCC1(NC(=O)COc1ccc(Cl)c(F)c1)CC2)c1ncccc1COP(=O)(O)O [Compound 116, (2S)-1,4-bis[2-(4-chloro-3-fluorophenoxy)acetamido]bicyclo[2.2.2]octan-2-yl methyl{3-[(phosphonooxy)methyl]pyridin-2-yl}carbamate] | 903 (≈ 698 µg/mL) |
| O=C(COc1ccc(Cl)c(F)c1)NC12CCC(NC(=O)COc3ccc(Cl)c(F)c3)(CC1)[C@@H](OC(=O)NCCOP(=O)(O)O)C2 [Compound 117] | 598 (≈ 416 µg/mL) |
| O=C(COc1ccc(Cl)c(F)c1)NC12CCC(NC(=O)COc3ccc(Cl)c(F)c3)(CC1)[C@@H](OC(=O)CCCOP(=O)(O)O)C2 [Compound 120, (2S)-1,4-bis[2-(4-chloro-3-fluorophenoxy)acetamido]bicyclo[2.2.2]octan-2-yl 4-(phosphonooxy)butanoate] | 812 (≈ 565 µg/mL) |
| O=C(COc1ccc(Cl)c(F)c1)NC12CCC(NC(=O)COc3ccc(Cl)c(F)c3)(CC1)[C@@H](OC(=O)OCCOP(=O)(O)O)C2 [Compound 121, (2S)-1,4-bis[2-(4-chloro-3-fluorophenoxy)acetamido]bicyclo[2.2.2]octan-2-yl 2-(phosphonooxy)ethyl carbonate] | > 1000 |
| CC(C)(COP(=O)(O)O)CC(=O)O[C@H]1CC2(NC(=O)COc3ccc(Cl)c(F)c3)CCC1(NC(=O)COc1ccc(Cl)c(F)c1)CC2 [Compound 122, (2S)-1,4-bis[2-(4-chloro-3-fluorophenoxy)acetamido]bicyclo[2.2.2]octan-2-yl 3,3-dimethyl-4-(phosphonooxy)butanoate] | 317 (≈ 229 µg/mL) |
| O=C(COc1ccc(Cl)c(F)c1)NC12CCC(NC(=O)COc3ccc(Cl)c(F)c3)(CC1)[C@@H](OS(=O)(=O)O)C2 [Compound 125, (2S)-1,4-bis[2-(4-chloro-3-fluorophenoxy)acetamido]bicyclo[2.2.2]octan-2-yl hydrogen sulfate] | 152 |
| O=C(COc1ccc(Cl)c(F)c1)NC12CCC(NC(=O)COc3ccc(Cl)c(F)c3)(CC1)[C@@H](OC(=O)CCCCOP(=O)(O)O)C2 [Compound 127, (2S)-1,4-bis[2-(4-chloro-3-fluorophenoxy)acetamido]bicyclo[2.2.2]octan-2-yl 5-(phosphonooxy)pentanoate] | 645 (≈ 458 µg/mL) |
| O=C(COc1ccc(Cl)c(F)c1)NC12CCC(NC(=O)COc3ccc(Cl)c(F)c3)(CC1)[C@@H](OCOP(=O)(O)O)C2 [Compound 131, ({(2S)-1,4-bis[2-(4-chloro-3-fluorophenoxy)acetamido]bicyclo[2.2.2]octan-2-yl}oxy)methyl dihydrogen phosphate] | > 1000 |
